Assay results published in patent US7700782B2, “Compounds 569” (AstraZeneca AB, priority 2007, dated 2010).
Counter-ions that a name gives are not always drawn.

Target: T1, Adrenergic β2 (Homo sapiens, UniProt P07550)
T1 construct: Adherent H292 cells were removed from tissue culture flasks; endogenous in cells; host or cells: H292 cells
Test: Adrenergic β2 mediated cAMP production in H292 cells (AlphaScreen cAMP detection)
Type: cell-based
Conditions: Intrinsic Activity, fraction relative to the maximum activity determined for formoterol
How it was run: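 H292 cells, 5000/well, preincubated 10 min with rolipram (final 300 μM, 1.6% DMSO) in HEPES pH 7.4 HBSS, then compound 60 min at room temperature. Lysate cAMP quantified by AlphaScreen against a cAMP standard curve. pEC50 and intrinsic activity (fraction of formoterol maximum) from four-parameter logistic fits.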

T1 sequence (P07550 whole entry): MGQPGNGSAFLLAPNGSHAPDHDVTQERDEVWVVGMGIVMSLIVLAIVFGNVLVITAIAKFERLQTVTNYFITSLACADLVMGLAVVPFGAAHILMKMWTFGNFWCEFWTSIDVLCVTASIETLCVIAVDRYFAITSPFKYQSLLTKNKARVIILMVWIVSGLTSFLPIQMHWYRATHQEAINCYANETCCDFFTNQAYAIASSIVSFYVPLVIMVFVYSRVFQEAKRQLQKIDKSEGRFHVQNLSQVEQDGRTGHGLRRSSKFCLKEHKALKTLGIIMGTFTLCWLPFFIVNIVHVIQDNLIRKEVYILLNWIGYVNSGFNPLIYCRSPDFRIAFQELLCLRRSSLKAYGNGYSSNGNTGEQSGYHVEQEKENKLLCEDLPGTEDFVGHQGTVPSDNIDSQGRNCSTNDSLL

| SMILES | β2 Int Act |
| --- | --- |
| CCCC[C@H](C)N(CCNCCc1ccc(O)c2[nH]c(=O)sc12)C(=O)CCNCCc1ccccc1 [Example 102, N-(2-{[2-(4-Hydroxy-2-oxo-2,3-dihydro-1,3-benzothiazol-7-yl)ethyl]amino}ethyl)-N-[(1S)-1-methylpentyl]-N^3-(2-phenylethyl)-β-alaninamide bis-trifluoroacetic acid salt] | 0.23 |
| CC(CN(C(=O)CCNCCc1cccc(F)c1)C1CCCCCC1)NCCc1ccc(O)c2[nH]c(=O)sc12 (stereo not drawn) [Example 104, N-Cycloheptyl-N^3-[2-(3-fluorophenyl)ethyl]-N-(2-{[2-(4-hydroxy-2-oxo-2,3-dihydro-1,3-benzothiazol-7-yl)ethyl]amino}propyl)-β-alaninamide bis-trifluoroacetic acid salt] | 0.81 |
| CC(CN(C(=O)CCNCCc1ccccc1)C1CCCCC1)NCCc1ccc(O)c2[nH]c(=O)sc12 (stereo not drawn) [Example 105, N-Cyclohexyl-N-(2-{[2-(4-hydroxy-2-oxo-2,3-dihydro-1,3-benzothiazol-7-yl)ethyl]amino}propyl)-N^3-(2-phenylethyl)-β-alaninamide bis-trifluoroacetic acid salt] | 0.86 |
